Experimental findings from patent US7470690B2, “4-(2-Fluorophenyl)-6-methyl-2-(1-piperazinyl)thieno[2,3-D)pyrimidine in the treatment of functional bowel disorder” (Dynogen Pharmaceuticals, Inc., priority 2002, dated 2008) are described below.

The structures appear in SMILES notation.

This experiment deals with male Sprague-Dawley rats. Briefly: Inhibition of the reflex depressor response to colorectal distension in anaesthetised rats. The experiment is classed as in vivo, rat. Particulars: for Fall in arterial blood pressure (mean absolute decrease in mean arterial pressure, standard error of mean in brackets) evoked by distension of the balloon: following MCI-225 3 mg/kg i.v. From the text:
The data on which this invention is based will now be described. In a study using intact animals, the ability of a drug to inhibit the reflex depressor response to colorectal distension can be assessed. In this model, an inhibition of the reflex indicates modulation of visceral nociceptive neurotransmission and, therefore, the use of the drug in functional bowel disease (e.g. IBS); see Kozlowski et al, 2000, Gut 46, 474-480. Allodynia and visceral pain are important components of functional bowel disease.
Experiments were performed on male Sprague-Dawley rats (250-300 g). Anaesthesia was induced with isoflurane (2.5% in oxygen) and maintained with alpha chlorolose (80 mg/kg i.v.). The left carotid artery was cannulated for the measurement of blood pressure and heart rate and the left jugular vein cannulated for drug administration. A tracheal cannula was implanted for artificial respiration if required. A 10 mm long latex balloon was inserted intrarectally so that the tip of the balloon was 20 mm from the anal verge (Kozlowski et al, supra). The balloon was connected via a double lumen cannula to a pressure transducer and also to a saline-filled syringe for inflation/deflation of the balloon. Throughout the experiment, body temperature was kept constant at 36-38 C using a homeothermic blanket.
Once stable baseline parameters were obtained (approximately after 20 minutes), the balloon was rapidly inflated with increasing volumes of saline (0.5-2.5 ml) for 30 seconds at 5 minute intervals, and the resultant change in blood pressure recorded. Three distinct response curves were constructed, with a 10 minute stabilisation period between each curve. In one group of animals, 10 minutes prior to the commencement of the final distension response curve, a single bolus of MCI-225 (3 mg/kg) was administered intravenously; in a second group of animals, a single bolus dose of vehicle was administered. The effect of MCI-225 and vehicle was determined by analysing the changes in colorectal distension that evoked depressor response.

For the molecule `Cc1cc2c(-c3ccccc3F)nc(N3CCNCC3)nc2s1.Cl.O` [MCI-225, 4-(2-Fluorophenyl)-6-methyl-2-(1-piperazinyl)thieno[2,3-D]pyrimidine monohydrate hydrochloride], for the setting “3 mg/kg i.v., colorectal balloon distension”, the “Effect on distension-induced falls in blood pressure (in words)” value is “inhibited the distension-induced falls in blood pressure”. In addition, the “Fall in arterial blood pressure (mean absolute decrease in mean arterial pressure, standard error of mean in brackets) evoked by distension of the balloon” value runs as follows: (0.5 ml balloon volume, n=6) 2.2 (1.65) mmHg; (1.0 ml balloon volume, n=6) 6.3 (2.6) mmHg; (1.5 ml balloon volume, n=6) 10.6 (3.9) mmHg; (2.0 ml balloon volume, n=6, p less than 0.01 vs before drug (paired t test)) 15.3 (5.4) mmHg; (2.5 ml balloon volume, n=5, p less than 0.05 vs before drug (paired t test)) 24.6 (7.3) mmHg.
